{"source": "PubChem BioAssay (NCI)", "experiment_in_all_cases": "NCI tumour cell line growth inhibition, 48 h", "key": {"SF-295 CNS": {"test_system": "SF-295 CNS"}, "M14 melanoma": {"test_system": "M14 melanoma"}, "SNB-19 CNS": {"test_system": "SNB-19 CNS"}, "HL-60(TB) leukemia": {"test_system": "HL-60(TB) leukemia"}, "NCI-H226 lung": {"test_system": "NCI-H226 lung"}, "OVCAR-5 ovarian": {"test_system": "OVCAR-5 ovarian"}, "EKVX NSCLC": {"test_system": "EKVX NSCLC"}, "U251 CNS": {"test_system": "U251 CNS"}, "KM12 colon": {"test_system": "KM12 colon"}, "BT-549 breast": {"test_system": "BT-549 breast"}}, "note": "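48-hour exposure; five concentrations; linearly interpolated endpoints. GI50 marks 50% less growth. TGI: total growth inhibition.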"}
{"smiles": "COC(=O)C1=C(CS(=O)c2ccccc2[N+](=O)[O-])ON(C)C1c1ccccc1", "note": "(stereo not drawn)", "values": [{"measurement": "TGI", "setting": "SF-295 CNS", "value": "> 100", "unit": "µM"}, {"measurement": "TGI", "setting": "M14 melanoma", "value": "> 100", "unit": "µM"}, {"measurement": "TGI", "setting": "SNB-19 CNS", "value": "> 100", "unit": "µM"}, {"measurement": "TGI", "setting": "HL-60(TB) leukemia", "value": 38.6, "unit": "µM"}, {"measurement": "TGI", "setting": "NCI-H226 lung", "value": "> 100", "unit": "µM"}, {"measurement": "TGI", "setting": "OVCAR-5 ovarian", "value": "> 100", "unit": "µM"}, {"measurement": "TGI", "setting": "EKVX NSCLC", "value": "> 100", "unit": "µM"}, {"measurement": "TGI", "setting": "U251 CNS", "value": "> 100", "unit": "µM"}, {"measurement": "TGI", "setting": "KM12 colon", "value": "> 100", "unit": "µM"}]}
{"smiles": "CC1(C)C2CCC3(C2)CS(=O)(=O)N2OC231", "note": "(stereo not drawn)", "values": [{"measurement": "TGI", "setting": "SF-295 CNS", "value": "> 100", "unit": "µM"}, {"measurement": "TGI", "setting": "M14 melanoma", "value": 30, "unit": "µM"}, {"measurement": "TGI", "setting": "SNB-19 CNS", "value": "> 100", "unit": "µM"}, {"measurement": "TGI", "setting": "HL-60(TB) leukemia", "value": 43.3, "unit": "µM"}, {"measurement": "TGI", "setting": "OVCAR-5 ovarian", "value": 71.9, "unit": "µM"}, {"measurement": "TGI", "setting": "EKVX NSCLC", "value": 30.3, "unit": "µM"}, {"measurement": "TGI", "setting": "U251 CNS", "value": "> 100", "unit": "µM"}, {"measurement": "TGI", "setting": "KM12 colon", "value": 41.9, "unit": "µM"}]}
{"smiles": "Cc1c(Cl)cccc1NC(=O)CC1C(=O)Nc2ccccc2S1(=O)=O", "note": "(stereo not drawn)", "values": [{"measurement": "TGI", "setting": "SF-295 CNS", "value": 36.5, "unit": "µM"}, {"measurement": "TGI", "setting": "M14 melanoma", "value": 29.3, "unit": "µM"}, {"measurement": "TGI", "setting": "SNB-19 CNS", "value": 52.3, "unit": "µM"}, {"measurement": "TGI", "setting": "HL-60(TB) leukemia", "value": 16, "unit": "µM"}, {"measurement": "TGI", "setting": "NCI-H226 lung", "value": 35.1, "unit": "µM"}, {"measurement": "TGI", "setting": "OVCAR-5 ovarian", "value": 41.5, "unit": "µM"}, {"measurement": "TGI", "setting": "EKVX NSCLC", "value": 70, "unit": "µM"}, {"measurement": "TGI", "setting": "U251 CNS", "value": 26.5, "unit": "µM"}]}
{"smiles": "CCOc1c(Cl)cc(CNC(C)C(O)c2ccccc2)cc1OC", "note": "(stereo not drawn)", "values": [{"measurement": "GI50", "setting": "SF-295 CNS", "value": 16.4, "unit": "µM"}, {"measurement": "TGI", "setting": "SF-295 CNS", "value": 34.6, "unit": "µM"}, {"measurement": "GI50", "setting": "SNB-19 CNS", "value": 32.7, "unit": "µM"}, {"measurement": "TGI", "setting": "SNB-19 CNS", "value": "> 100", "unit": "µM"}, {"measurement": "GI50", "setting": "HL-60(TB) leukemia", "value": 21.1, "unit": "µM"}, {"measurement": "TGI", "setting": "HL-60(TB) leukemia", "value": 46.1, "unit": "µM"}, {"measurement": "GI50", "setting": "NCI-H226 lung", "value": 33.5, "unit": "µM"}, {"measurement": "TGI", "setting": "NCI-H226 lung", "value": "> 100", "unit": "µM"}, {"measurement": "GI50", "setting": "BT-549 breast", "value": 41.1, "unit": "µM"}, {"measurement": "TGI", "setting": "BT-549 breast", "value": "> 100", "unit": "µM"}, {"measurement": "GI50", "setting": "OVCAR-5 ovarian", "value": 24.3, "unit": "µM"}, {"measurement": "TGI", "setting": "OVCAR-5 ovarian", "value": 96.4, "unit": "µM"}, {"measurement": "GI50", "setting": "U251 CNS", "value": 19.5, "unit": "µM"}, {"measurement": "TGI", "setting": "U251 CNS", "value": 46.1, "unit": "µM"}, {"measurement": "GI50", "setting": "KM12 colon", "value": 22.5, "unit": "µM"}, {"measurement": "TGI", "setting": "KM12 colon", "value": 49.2, "unit": "µM"}]}
{"smiles": "Cc1ccc(N=Nc2c(C)c(C#N)c(=S)n(C3OC(CO)C(O)C(O)C3O)c2-c2ccccc2)cc1", "note": "(stereo not drawn)", "values": [{"measurement": "TGI", "setting": "SF-295 CNS", "value": 69.5, "unit": "µM"}, {"measurement": "TGI", "setting": "M14 melanoma", "value": 30.4, "unit": "µM"}, {"measurement": "TGI", "setting": "SNB-19 CNS", "value": 48.1, "unit": "µM"}, {"measurement": "TGI", "setting": "HL-60(TB) leukemia", "value": "> 100", "unit": "µM"}, {"measurement": "TGI", "setting": "BT-549 breast", "value": 42.1, "unit": "µM"}, {"measurement": "TGI", "setting": "OVCAR-5 ovarian", "value": 55.9, "unit": "µM"}, {"measurement": "TGI", "setting": "U251 CNS", "value": 30.8, "unit": "µM"}, {"measurement": "TGI", "setting": "KM12 colon", "value": 58.9, "unit": "µM"}]}
{"smiles": "CCOC(=O)CC1NC(=O)CS1", "note": "(stereo not drawn)", "values": [{"measurement": "TGI", "setting": "SF-295 CNS", "value": "> 100", "unit": "µM"}, {"measurement": "TGI", "setting": "M14 melanoma", "value": "> 100", "unit": "µM"}, {"measurement": "TGI", "setting": "SNB-19 CNS", "value": "> 100", "unit": "µM"}, {"measurement": "TGI", "setting": "HL-60(TB) leukemia", "value": "> 100", "unit": "µM"}, {"measurement": "TGI", "setting": "NCI-H226 lung", "value": 48.1, "unit": "µM"}, {"measurement": "TGI", "setting": "OVCAR-5 ovarian", "value": "> 100", "unit": "µM"}, {"measurement": "TGI", "setting": "EKVX NSCLC", "value": "> 100", "unit": "µM"}, {"measurement": "TGI", "setting": "U251 CNS", "value": "> 100", "unit": "µM"}, {"measurement": "TGI", "setting": "KM12 colon", "value": "> 100", "unit": "µM"}]}
{"smiles": "CN1C(=O)C(Cl)(C(Cl)(Cl)S(=O)(=O)O)C(=O)c2ccccc21", "note": "(stereo not drawn)", "values": [{"measurement": "TGI", "setting": "SF-295 CNS", "value": "> 100", "unit": "µM"}, {"measurement": "TGI", "setting": "M14 melanoma", "value": "> 100", "unit": "µM"}, {"measurement": "TGI", "setting": "SNB-19 CNS", "value": "> 100", "unit": "µM"}, {"measurement": "TGI", "setting": "HL-60(TB) leukemia", "value": "> 100", "unit": "µM"}, {"measurement": "TGI", "setting": "NCI-H226 lung", "value": "> 100", "unit": "µM"}, {"measurement": "TGI", "setting": "EKVX NSCLC", "value": "> 100", "unit": "µM"}, {"measurement": "TGI", "setting": "U251 CNS", "value": "> 100", "unit": "µM"}, {"measurement": "TGI", "setting": "KM12 colon", "value": "> 100", "unit": "µM"}]}
{"smiles": "N#CC(NNC(=O)c1ccccc1O)c1cccc(O)c1", "note": "(stereo not drawn)", "values": [{"measurement": "TGI", "setting": "SF-295 CNS", "value": "> 100", "unit": "µM"}, {"measurement": "TGI", "setting": "M14 melanoma", "value": "> 100", "unit": "µM"}, {"measurement": "TGI", "setting": "HL-60(TB) leukemia", "value": 73.9, "unit": "µM"}, {"measurement": "TGI", "setting": "NCI-H226 lung", "value": 88.5, "unit": "µM"}, {"measurement": "TGI", "setting": "OVCAR-5 ovarian", "value": "> 100", "unit": "µM"}, {"measurement": "TGI", "setting": "U251 CNS", "value": "> 100", "unit": "µM"}, {"measurement": "TGI", "setting": "KM12 colon", "value": "> 100", "unit": "µM"}]}
{"smiles": "O=C1C2Cc3ccccc3CN2C(=O)N1CCN1CCCC1", "note": "(stereo not drawn)", "values": [{"measurement": "TGI", "setting": "SF-295 CNS", "value": "> 100", "unit": "µM"}, {"measurement": "TGI", "setting": "M14 melanoma", "value": "> 100", "unit": "µM"}, {"measurement": "TGI", "setting": "SNB-19 CNS", "value": "> 100", "unit": "µM"}, {"measurement": "TGI", "setting": "HL-60(TB) leukemia", "value": "> 100", "unit": "µM"}, {"measurement": "TGI", "setting": "NCI-H226 lung", "value": "> 100", "unit": "µM"}, {"measurement": "TGI", "setting": "OVCAR-5 ovarian", "value": "> 100", "unit": "µM"}, {"measurement": "TGI", "setting": "U251 CNS", "value": "> 100", "unit": "µM"}, {"measurement": "TGI", "setting": "KM12 colon", "value": "> 100", "unit": "µM"}]}
{"smiles": "COC(=O)c1nc(N)[nH]c(=O)c1CCCCCc1c(C(=O)OC)nc(N)[nH]c1=O", "values": [{"measurement": "TGI", "setting": "SF-295 CNS", "value": "> 50", "unit": "µM"}, {"measurement": "TGI", "setting": "M14 melanoma", "value": "> 50", "unit": "µM"}, {"measurement": "TGI", "setting": "SNB-19 CNS", "value": "> 50", "unit": "µM"}, {"measurement": "TGI", "setting": "HL-60(TB) leukemia", "value": "> 50", "unit": "µM"}, {"measurement": "TGI", "setting": "OVCAR-5 ovarian", "value": "> 50", "unit": "µM"}, {"measurement": "TGI", "setting": "EKVX NSCLC", "value": "> 50", "unit": "µM"}, {"measurement": "TGI", "setting": "U251 CNS", "value": "> 50", "unit": "µM"}, {"measurement": "TGI", "setting": "KM12 colon", "value": "> 50", "unit": "µM"}]}
{"smiles": "CCN(CC)c1ccc2c(c1)Nc1cc(=C(C#N)C#N)c3ccccc3c1=N2", "values": [{"measurement": "TGI", "setting": "SF-295 CNS", "value": "> 100", "unit": "µM"}, {"measurement": "TGI", "setting": "M14 melanoma", "value": "> 100", "unit": "µM"}, {"measurement": "TGI", "setting": "SNB-19 CNS", "value": "> 100", "unit": "µM"}, {"measurement": "TGI", "setting": "HL-60(TB) leukemia", "value": "> 100", "unit": "µM"}, {"measurement": "TGI", "setting": "NCI-H226 lung", "value": "> 100", "unit": "µM"}, {"measurement": "TGI", "setting": "OVCAR-5 ovarian", "value": "> 100", "unit": "µM"}, {"measurement": "TGI", "setting": "EKVX NSCLC", "value": "> 100", "unit": "µM"}, {"measurement": "TGI", "setting": "U251 CNS", "value": "> 100", "unit": "µM"}, {"measurement": "TGI", "setting": "KM12 colon", "value": "> 100", "unit": "µM"}]}
